From patent US20130072415A1, “DETERGENT COMPOSITIONS COMPRISING […] BLEND RATIOS of ISOPRENOID-BASED SURFACTANTS” (The Procter & Gamble Company, priority 2011, published 2013)

Assay: Dynamic Interfacial Tension (DIFT) analysis, ascending canola oil drop in aqueous detergent phase
Format: physicochemical
Details: 100 ppm surfactant, 34 ppm Calcium/Magnesium water hardness (3:1), 22° C., pH 8-8.5
Protocol: The surfactant systems in Table 3 are analyzed via DIFT method. Ingredients listed are in ppm concentration as would be common in a detergent wash water solution. Analysis conditions are in water of 103 ppm Calcium/Magnesium water hardness level (3:1 Calcium:Magnesium), 21° C., pH 8-8.5. • Formula E contains a commercial branched Neodol® 67 AS surfactant. • Formula F contains 90A:10B AS of the present invention substituted for branched Neodol® 67 AS surfactant. • Formulas G and H are common detergent surfactant mixtures containing no branched alkyl sulfate surfactants.
The surfactant systems in Table 5 are analyzed via DIFT method. Ingredients listed are in ppm concentration as would be common in a detergent wash water solution. Analysis conditions are in water of 34 ppm Calcium/Magnesium water hardness level (3:1 Calcium:Magnesium), 22° C., pH 8-8.5.
Method: Dynamic Interfacial Tension Analysis. Dynamic Interfacial Tension (DIFT) analysis is performed on a Krüss® DVT30 Drop Volume Tensiometer (Krüss USA, Charlotte, N.C.). The instrument is configured to measure the interfacial tension (IFT) of an ascending oil drop in aqueous detergent (surfactant) phase. The oil used is canola oil (Crisco Pure Canola Oil manufactured by The J.M. Smucker Company). The aqueous detergent and oil phases are temperature controlled at 22° C. (+/−1° C.), via a recirculating water temperature controller attached to the tensiometer. A dynamic interfacial tension curve is generated by dispensing the oil drops into the aqueous detergent phase from an ascending capillary with an internal diameter of 0.2540 mm, over a range of flow rates and measuring the interfacial tension at each flow rate. Data is generated at oil dispensing flow rates of 500 uL/min to 1 uL/min with 2 flow rates per decade on a logarithmic scale (7 flow rates measured in this instance). Interfacial tension is measured on three oil drops per flow rate and then averaged. Interfacial tension is reported in units of mN/m. Surface age of the oil drops at each flow rate is also recorded and plots can be generated either of interfacial tension (y-axis) versus oil flow rate (x-axis) or interfacial tension (y-axis) versus oil drop surface age (x-axis). […] Example of analysis of a 100 ppm surfactant concentration, with water hardness (3:1 Ca:Mg) of 103 ppm, 22° C., pH 8: Density settings for 22° C. are set at 0.916 g/ml for Canola Oil and 0.998 g/ml for aqueous surfactant phase (assumed to be the same as water since dilute solution). To a 100 ml volumetric flask is added 1.00 mL of 1% (wt/wt) Surfactant solution in deionized water and the volumetric is then filled to the mark with […] 3:1 CaCl2:MgCl2 solution and mixed well. The solution is transferred to a beaker and the pH adjusted to 8 by addition of a few drops of 0.1N NaOH or […]. The solution is then loaded into the tensiometer measurement cell and analyzed. Total time from addition of hardness to surfactant and start of analysis is less than 5 minutes.

Structure (SMILES) | IFT @ 1 uL/min Oil Flowrate [mN/m] | IFT @ 10 uL/min Oil Flowrate [mN/m] | IFT @ 99 uL/min Oil Flowrate [mN/m]
CC(C)CCCC(C)CCCC(C)CCCOS(=O)(=O)[O-].[Na+] (stereo not drawn) [A AS, sodium salt of 4,8,12-trimethyltridecan-1-ol sulfate] | 0.17 | 0.88 | 4.83
CCC(CCCC(C)CCCC(C)C)CCOS(=O)(=O)[O-].[Na+] (stereo not drawn) [B AS, sodium salt of 3-ethyl-7,11-dimethyldodecan-1-ol sulfate] | 0.35 | 1.6 | 6.14
